Patent US20060004012A1, “Compounds, pharmaceutical compositions and methods for use in treating metabolic disorders” (priority 2004, published 2006)
pEC50: −log10 of the molar value.

Molecular target: T1, human GPR40 (Homo sapiens, UniProt O14842)
T1 construct: expressed in transfected cells; host or cells: CHO cells, transiently transfected with Lipofectamine 2000 and co-transfected with an aequorin expression vector (Euroscreen)
Experiment: Cell-based aequorin assay using human GPR40
Settings: activation of human GPR40; CHO cells transfected with GPR40 and aequorin expression vectors; aequorin luminescence, area-under-curve 2-20 seconds; read-out: Relative EC50
Experimental: A cell-based aequorin assay may be employed to characterize the modulatory activity of compounds on the GPR40 signaling pathway. In an exemplary assay, CHO cells are transfected in a 15 cm plated containing 14 million cells with 5 μg of GPR40 expression vector and 5 μg of Aequorin expression vector (Euroscreen) using Lipofectamine 2000 (Invitrogen). After 17-24 hours post-transfection, cells are washed with phosphate buffered saline (PBS) and detached from the tissue culture dish with 2 mL of trypsin (0.25%(w/v)). Trypsinization is halted with 28 mL of Hanks Buffered Salt Solution containing 20 mM Hepes (H/HBSS) and 0.01% fatty acid-free bovine serum albumin (BSA) or 0.625% fatty acid-free human serum albumin (HSA). Coelantrazine is added to 1 ug/mL and the cells are incubated for 2 hours at room temperature. Cells are gently mixed every 15 minutes. Compounds are dissolved in dimethyl sulfoxide for preparation of 10 mM stock solutions. Compounds are diluted in H/HBSS containing either 0.01% BSA or 0.625% HSA. Serial dilutions of the test compounds are prepared to determine dose response.
Aequorin luminescence measurements are made using an EG&G Berthold 96-well luminometer and the response is measured over a 20 second interval after cells and compounds were mixed. The area-under-curve from 2-20 seconds is plotted to determine dose reponse. The EC50 (effective concentration to reach 50% maximal response) is determined from the dose response plot. […]

T1 sequence (O14842 whole entry): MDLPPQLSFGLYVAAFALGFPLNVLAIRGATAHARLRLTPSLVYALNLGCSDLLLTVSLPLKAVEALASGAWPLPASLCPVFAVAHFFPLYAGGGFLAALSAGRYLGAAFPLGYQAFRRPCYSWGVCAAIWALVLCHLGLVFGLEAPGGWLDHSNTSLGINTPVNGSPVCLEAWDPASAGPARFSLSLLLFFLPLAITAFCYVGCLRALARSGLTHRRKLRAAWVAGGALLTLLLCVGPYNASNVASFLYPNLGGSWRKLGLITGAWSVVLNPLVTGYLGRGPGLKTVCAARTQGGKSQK

Row | SMILES | pEC50
1 | CC#C[C@@H](CC(=O)O)c1ccc(OCc2nc(-c3ccc(C(F)(F)F)cc3)oc2C)cc1 [Compound 86] | > 8.00
2 | Cc1ccccc1COc1ccc(C(C#CC(F)(F)F)CC(=O)O)cc1 (stereo not drawn) [Compound 87] | < 5.00
3 | O=C(O)CC1(c2ccc(OCc3cccc(-c4ccc(C(F)(F)F)cc4)c3)cc2)CC1 [Compound 89] | 5.00 to 6.00
4 | NC(=O)C(CC(=O)O)c1ccc(OCc2cccc(-c3ccc(C(F)(F)F)cc3)c2)cc1 (stereo not drawn) [Compound 90] | 5.00 to 6.00
5 | OC(O)CC(c1ccc(OCc2cccc(-c3ccc(C(F)(F)F)cc3)c2)cc1)C1CC1 (stereo not drawn) [Compound 91] | 5.00 to 6.00

Other lines, results leading:

Row | pEC50 | SMILES
6 | < 5.00 | CC(C)CN(CC(C)C)[C@@H](CC(=O)O)c1ccc(OCc2cccc(Oc3ccc(F)cc3)c2)cc1 [Compound 88.1]
7 | < 5.00 | CCC(=O)N[C@@H](CC(=O)O)c1ccc(OCc2cccc(Oc3ccc(F)cc3)c2)cc1 [Compound 88.2]
8 | < 5.00 | O=C(O)C[C@H](NC(=O)c1ccccc1)c1ccc(OCc2cccc(Oc3ccc(F)cc3)c2)cc1 [Compound 88.3]
9 | < 5.00 | O=C(O)C[C@H](NC(=O)Cc1ccccc1)c1ccc(OCc2cccc(Oc3ccc(F)cc3)c2)cc1 [Compound 88.4]
10 | < 5.00 | O=C(O)C[C@H](NC(=O)/C=C/c1ccccc1)c1ccc(OCc2cccc(Oc3ccc(F)cc3)c2)cc1 [Compound 88.5]
11 | < 5.00 | O=C(O)C[C@H](NC(=O)CCc1ccccc1)c1ccc(OCc2cccc(Oc3ccc(F)cc3)c2)cc1 [Compound 88.6]
12 | 5.00 to 6.00 | O=C(O)CC(c1ccc(OCc2cccc(-c3ccc(C(F)(F)F)cc3)c2)cc1)c1nn[nH]n1 (stereo not drawn) [Compound 88.7]
